# Measured values published in patent US20110086759A1, “CHEMICAL COMPOUNDS” (SYNGENTA CROP PROTECTION, INC., priority 2007, published 2011).
# Assays:
# Format in all cases: in vivo
# Setaria faberi (SETFA) [1] = experiment: Post-emergence biological efficacy, glasshouse pot test; details: 312 h
# Method in brief: (§1)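 Pot-grown weeds were sprayed 8 days after sowing with test compound in acetone/water (50:50) with 0.5% Tween 20 at 1000 or 250 g/ha. Glasshouse at 24/16° C day/night, 14 h light, 65% humidity. Damage scored 0-100 (100 = total damage) after 13 days.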
# [2] = system: Alopecurus myosuroides (ALOMY); experiment: as above; details: 312 h
# Method in brief: as §1
# [3] = system: Ipomea hederaceae (IPOHE); experiment: as above; details: Ipomoea hederacea, 312 h
# Method in brief: as §1
# [4] = system: Amaranthus retoflexus (AMARE); experiment: as above; details: Amaranthus retroflexus, 312 h
# Method in brief: as §1
# [5] = system: Echinochloa crus-galli (ECHCG); experiment: as above; details: 312 h
# Method in brief: as §1
# Solanum nigrum (SOLNI) [6] = experiment: as above; details: 312 h
# Method in brief: as §1
# Setaria faberi (SETFA) [7] = experiment: Pre-emergence biological efficacy, glasshouse pot test; details: 312 h
# Method in brief: (§2)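 Visual phytotoxicity (0 no damage, 100 total damage) assessed 13 d after treatment. Soil-sown pots sprayed one day post-sowing; dose 1000 or 250 g/ha; formulation in acetone/water 50:50, 0.5% Tween 20.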
# [8] = system: Alopecurus myosuroides (ALOMY); experiment: as above; details: 312 h
# Method in brief: as §2
# [9] = system: Ipomea hederaceae (IPOHE); experiment: as above; details: Ipomoea hederacea, 312 h
# Method in brief: as §2
# [10] = system: Amaranthus retoflexus (AMARE); experiment: as above; details: Amaranthus retroflexus, 312 h
# Method in brief: as §2
# [11] = system: Echinochloa crus-galli (ECHCG); experiment: as above; details: 312 h
# Method in brief: as §2
# Solanum nigrum (SOLNI) [12] = experiment: as above; details: 312 h
# Method in brief: as §2
# [13] = post-emergence, 1,000 g/ha, evaluated after 13 days (100=total damage; 0=no damage), read-out: Percentage damage caused to weed species, SETFA
# [14] = post-emergence, 1,000 g/ha, evaluated after 13 days (100=total damage; 0=no damage), read-out: Percentage damage caused to weed species, ALOMY
# [15] = post-emergence, 1,000 g/ha, evaluated after 13 days (100=total damage; 0=no damage), read-out: Percentage damage caused to weed species, IPOHE
# [16] = post-emergence, 1,000 g/ha, evaluated after 13 days (100=total damage; 0=no damage), read-out: Percentage damage caused to weed species, AMARE
# [17] = post-emergence, 1,000 g/ha, evaluated after 13 days (100=total damage; 0=no damage), read-out: Percentage damage caused to weed species, ECHCG
# [18] = post-emergence, 1,000 g/ha, evaluated after 13 days (100=total damage; 0=no damage), read-out: Percentage damage caused to weed species, SOLNI
# [19] = pre-emergence, 1,000 g/ha, evaluated after 13 days (100=total damage; 0=no damage), read-out: Percentage damage SETFA
# [20] = pre-emergence, 1,000 g/ha, evaluated after 13 days (100=total damage; 0=no damage), read-out: Percentage damage ALOMY
# [21] = pre-emergence, 1,000 g/ha, evaluated after 13 days (100=total damage; 0=no damage), read-out: Percentage damage IPOHE
# [22] = pre-emergence, 1,000 g/ha, evaluated after 13 days (100=total damage; 0=no damage), read-out: Percentage damage AMARE
# [23] = pre-emergence, 1,000 g/ha, evaluated after 13 days (100=total damage; 0=no damage), read-out: Percentage damage ECHCG
# [24] = pre-emergence, 1,000 g/ha, evaluated after 13 days (100=total damage; 0=no damage), read-out: Percentage damage SOLNI
Structure (SMILES),pest or weed control at 1000 g/ha (Setaria faberi (SETFA) [1]; [13]) [%],"pest or weed control at 1000 g/ha [2, 14] [%]","pest or weed control at 1000 g/ha [3, 15] [%]","pest or weed control at 1000 g/ha [4, 16] [%]","pest or weed control at 1000 g/ha [5, 17] [%]",pest or weed control at 1000 g/ha (Solanum nigrum (SOLNI) [6]; [18]) [%],pest or weed control at 1000 g/ha (Setaria faberi (SETFA) [7]; [19]) [%],"pest or weed control at 1000 g/ha [8, 20] [%]","pest or weed control at 1000 g/ha [9, 21] [%]","pest or weed control at 1000 g/ha [10, 22] [%]","pest or weed control at 1000 g/ha [11, 23] [%]",pest or weed control at 1000 g/ha (Solanum nigrum (SOLNI) [12]; [24]) [%],also measured
"O=C(NCc1cccs1)c1nc(C2CC2)nc(NCc2cccs2)c1Cl [Compound 265-4, 5-Chloro-2-cyclopropyl-4-(thiophen-2-ylmethylamino)-6-(thiophen-2-yl-methylamino-carbonyl)-pyrimidine]",,,,,,,,,,,,,"pest or weed control at 1000 g/ha (Setaria faberi (SETFA) [1]; Rate 1,000 g/ha, post-emergence spray, evaluated after 13 days (100=total damage to plant; 0=no damage to plant), read-out: Percentage damage caused to weed species, post-emergence, SETFA): 20%; pest or weed control at 1000 g/ha ([2]; Rate 1,000 g/ha, post-emergence spray, evaluated after 13 days (100=total damage to plant; 0=no damage to plant), read-out: Percentage damage caused to weed species, post-emergence, ALOMY): 20%; pest or weed control at 1000 g/ha ([3]; Rate 1,000 g/ha, post-emergence spray, evaluated after 13 days (100=total damage to plant; 0=no damage to plant), read-out: Percentage damage caused to weed species, post-emergence, IPOHE): 50%; pest or weed control at 1000 g/ha ([4]; Rate 1,000 g/ha, post-emergence spray, evaluated after 13 days (100=total damage to plant; 0=no damage to plant), read-out: Percentage damage caused to weed species, post-emergence, AMARE): 50%; pest or weed control at 1000 g/ha ([5]; Rate 1,000 g/ha, post-emergence spray, evaluated after 13 days (100=total damage to plant; 0=no damage to plant), read-out: Percentage damage caused to weed species, post-emergence, ECHCG): 20%; pest or weed control at 1000 g/ha (Solanum nigrum (SOLNI) [6]; Rate 1,000 g/ha, post-emergence spray, evaluated after 13 days (100=total damage to plant; 0=no damage to plant), read-out: Percentage damage caused to weed species, post-emergence, SOLNI): 50%; pest or weed control at 1000 g/ha (Setaria faberi (SETFA) [7]; pre-emergence, rate 1,000 g/ha, evaluated after 13 days (100=total damage to plant; 0=no damage), read-out: Percentage damage caused to weed species, SETFA): 0%; pest or weed control at 1000 g/ha ([8]; pre-emergence, rate 1,000 g/ha, evaluated after 13 days (100=total damage to plant; 0=no damage), read-out: Percentage damage caused to weed species, ALOMY): 0%; pest or weed control at 1000 g/ha ([9]; pre-emergence, rate 1,000 g/ha, evaluated after 13 days (100=total damage to plant; 0=no damage), read-out: Percentage damage caused to weed species, IPOHE): 0%; pest or weed control at 1000 g/ha ([10]; pre-emergence, rate 1,000 g/ha, evaluated after 13 days (100=total damage to plant; 0=no damage), read-out: Percentage damage caused to weed species, AMARE): 20%; pest or weed control at 1000 g/ha ([11]; pre-emergence, rate 1,000 g/ha, evaluated after 13 days (100=total damage to plant; 0=no damage), read-out: Percentage damage caused to weed species, ECHCG): 0%; pest or weed control at 1000 g/ha (Solanum nigrum (SOLNI) [12]; pre-emergence, rate 1,000 g/ha, evaluated after 13 days (100=total damage to plant; 0=no damage), read-out: Percentage damage caused to weed species, SOLNI): 0%"
"COC(=O)c1nc(C2CC2)nc(N[C@H]2c3ccccc3C[C@H]2O)c1Cl [4-37 (1S,2R), 5-Chloro-2-cyclopropyl-4-[(1S, 2R)-2-hydroxy-indan-1-ylamino]-6-methoxycarbonyl-pyrimidine]",60,50,50,100,60,100,60,30,80,100,40,90,
"COC(=O)c1nc(C2CC2)nc(NCc2cccc(C)c2)c1Cl [Compound 4-72, 5-Chloro-2-cyclopropyl-6-methoxycarbonyl-4-(3-methylphenyl-methylamino)-pyrimidine]",30,10,100,100,50,100,10,10,40,60,40,40,
"COC(=O)c1nc(C2CC2)nc(NCc2ccccc2Br)c1Cl [Compound 4-67, 4-(2-Bromophenyl-methylamino)-5-chloro-2-cyclopropyl-6-methoxycarbonyl-pyrimidine]",,,,,,,,,,,,,"pest or weed control at 250 g/ha (Setaria faberi (SETFA) [1]; post-emergence, 250 g/ha, evaluated after 13 days (100=total damage; 0=no damage), read-out: Percentage damage caused to weed species, SETFA): 70%; pest or weed control at 250 g/ha ([2]; post-emergence, 250 g/ha, evaluated after 13 days (100=total damage; 0=no damage), read-out: Percentage damage caused to weed species, ALOMY): 20%; pest or weed control at 250 g/ha ([3]; post-emergence, 250 g/ha, evaluated after 13 days (100=total damage; 0=no damage), read-out: Percentage damage caused to weed species, IPOHE): 80%; pest or weed control at 250 g/ha ([4]; post-emergence, 250 g/ha, evaluated after 13 days (100=total damage; 0=no damage), read-out: Percentage damage caused to weed species, AMARE): 90%; pest or weed control at 250 g/ha ([5]; post-emergence, 250 g/ha, evaluated after 13 days (100=total damage; 0=no damage), read-out: Percentage damage caused to weed species, ECHCG): 50%; pest or weed control at 250 g/ha (Solanum nigrum (SOLNI) [6]; post-emergence, 250 g/ha, evaluated after 13 days (100=total damage; 0=no damage), read-out: Percentage damage caused to weed species, SOLNI): 90%; pest or weed control at 250 g/ha (Setaria faberi (SETFA) [7]; pre-emergence, 250 g/ha, evaluated after 13 days (100=total damage; 0=no damage), read-out: Percentage damage SETFA): 0%; pest or weed control at 250 g/ha ([8]; pre-emergence, 250 g/ha, evaluated after 13 days (100=total damage; 0=no damage), read-out: Percentage damage ALOMY): 0%; pest or weed control at 250 g/ha ([9]; pre-emergence, 250 g/ha, evaluated after 13 days (100=total damage; 0=no damage), read-out: Percentage damage IPOHE): 0%; pest or weed control at 250 g/ha ([10]; pre-emergence, 250 g/ha, evaluated after 13 days (100=total damage; 0=no damage), read-out: Percentage damage AMARE): 40%; pest or weed control at 250 g/ha ([11]; pre-emergence, 250 g/ha, evaluated after 13 days (100=total damage; 0=no damage), read-out: Percentage damage ECHCG): 0%; pest or weed control at 250 g/ha (Solanum nigrum (SOLNI) [12]; pre-emergence, 250 g/ha, evaluated after 13 days (100=total damage; 0=no damage), read-out: Percentage damage SOLNI): 20%"
"COC(=O)c1nc(C2CC2)nc(NCc2ccccc2OC)c1Cl [Compound 4-78, 5-Chloro-2-cyclopropyl-6-methoxycarbonyl-4-(2-methoxyphenyl-methylamino)-pyrimidine]",80,30,100,100,70,90,40,20,100,90,60,90,
"COC(=O)c1nc(C2CC2)nc(NCC(C)(F)c2cccc(C(F)(F)F)c2)c1Cl (stereo not drawn) [Compound 4-242, 5-Chloro-2-cyclopropyl-4-[2-fluoro-2-(3-trifluoromethyl-phenyl)propyl-amino]-6-methoxy-carbonylpyrimidine]",10,0,50,90,0,60,0,0,10,10,0,0,
"COC(=O)c1nc(C2CC2)nc(NCCc2ccc(S(N)(=O)=O)cc2)c1Cl [Compound 4-222, 4-[2-(4-Amino-sulphonylphenyl)-ethylamino]-5-chloro-2-cyclo-propyl-6-methoxy-carbonylpyrimidine]",0,0,60,30,0,20,0,0,10,30,0,0,
